Measurements: US20080318938A1, “METHODS FOR TREATING ABERRANT CELL PROLIFERATION DISORDERS” (priority 2007, published 2008)

Experiments:
Experiment in all cases: Inhibition of cell proliferation (MTT)
Format in all cases: cell-based
HT = settings: Homo sapiens, Lymphoma, 48 hours
Protocol: (§1) Inhibition of cell proliferation is determined in human tumor cell lines. Innoculation density and doubling times for specific cell lines are listed at World Wide Web URL “dtp.nci.nih.gov/docs/misc/common_files/cell_list.html.”
(§2) • 1. Plate adherent cells the day before starting the experiment in 180 μl growth media (see list hereafter). • 2. Day of experiment, count and plate suspension cells in 180 μl growth media (see list on next page). • 3. Make 10× Compound, vehicle, and chemotherapeutic cocktail • a. Compound (1× to 10×) • i. 10 μM Compound to 100 μM • ii. 3 μM Compound to 30 μM • iii. 1 μM Compound to 10 μM • iv. 0.3 μM Compound to 3 μM • v. 0.1 μM Compound to 1 μM • b. Vehicle • i. PBS, equivalent to the volume used for 10 μM Compound (1× is ˜0.06% PBS) • c. Chemotherapeutic cocktail (1× to 10×): • i. 1 μM Velcade to 10 μM • ii. 100 μM Etoposide to 1 mM • iii. 20 μM Taxol to 200 μM • 4. Add 20 μl of the 10× compound/vehicle/chemotherapeutic cocktail to cells. • 5. Incubate at 37° C., 5% CO2 for 48 hours. • 6. Aspirate media. For suspension cells, spin plate at 1500 RPM for 10 minutes. Use a multichannel pipettor to slowly remove media. • 7. Add 200 μl of Thiazolyl Blue Tetrazolium Bromide (MTT) to each well: 0.863 mg/ml MTT in growth media.
(§3) Proliferation of several cancer cells was inhibited by compound TA1-1B (which is a particular mixture of the isomers represented by TA1-1A), as shown in the following table (Table 1). The value EC50 is the amount of Compound TA1-1B that results in 50% inhibition of proliferation of the indicated cell type.

RS4-11 = settings: Homo sapiens; RS4-11, Leukemia; 48 hours
Protocol: as §1, §2, §3

HL-60(TB) = settings: Homo sapiens, Leukemia, 48 hours
Protocol: as §1, §2, §3

OVCAR-5 = settings: Homo sapiens; OVCAR-5, Ovarian; 48 hours
Protocol: as §1, §2, §3

RPMI-6666 = settings: Homo sapiens; RPMI-6666, Lymphoma; 48 hours
Protocol: as §1, §2, §3

MDA-MB-435 = settings: Homo sapiens; MDA-MB-435, Breast; 48 hours
Protocol: as §1, §2, §3

GDM-1 = settings: Homo sapiens; GDM-1, Leukemia; 48 hours
Protocol: as §1, §2, §3

HH = settings: Homo sapiens, Lymphoma, 48 hours
Protocol: as §1, §2, §3

BT-549 = settings: Homo sapiens; BT-549, Breast; 48 hours
Protocol: as §1, §2, §3

NCI-H522 = settings: Homo sapiens; NCI-H522, Non Small Cell Lung; 48 hours
Protocol: as §1, §2, §3

SNB-75 = settings: Homo sapiens; SNB-75, CNS; 48 hours
Protocol: as §1, §2, §3

IGROV1 = settings: Homo sapiens, IGROV-1; IGROV1, Ovarian; 48 hours
Protocol: as §1, §2, §3

MALME-3M = settings: Homo sapiens, Melanoma, 48 hours
Protocol: as §1, §2, §3

U937 = settings: Homo sapiens, U-937; U937, Lymphoma; 48 hours
Protocol: as §1, §2, §3

RS1184 = settings: Homo sapiens; RS1184, Lymphoma; 48 hours
Protocol: as §1, §2, §3

786-0 = settings: Homo sapiens; 786-0, Renal; 48 hours
Protocol: as §1, §2, §3

RPMI-8226 = settings: Homo sapiens; RPMI-8226, Leukemia; 48 hours
Protocol: as §1, §2, §3

Ramos = settings: Homo sapiens, Lymphoma, 48 hours
Protocol: as §1, §2, §3

TF-1 = settings: Homo sapiens; TF-1, Leukemia; 48 hours
Protocol: as §1, §2, §3

Reh = settings: Homo sapiens, Leukemia, 48 hours
Protocol: as §1, §2, §3

Raji = settings: Homo sapiens, Lymphoma, 48 hours
Protocol: as §1, §2, §3

U251 = settings: Homo sapiens, U-251; U251, CNS; 48 hours
Protocol: as §1, §2, §3

UACC-62 = settings: Homo sapiens; UACC-62, Melanoma; 48 hours
Protocol: as §1, §2, §3

I 9.2 = settings: Homo sapiens; I 9.2, Leukemia; 48 hours
Protocol: as §1, §2, §3

SF-268 = settings: Homo sapiens; SF-268, CNS; 48 hours
Protocol: as §1, §2, §3

MEG-01 = settings: Homo sapiens; MEG-01, Leukemia; 48 hours
Protocol: as §1, §2, §3

MCF7 = settings: Homo sapiens; MCF7, Breast; 48 hours
Protocol: as §1, §2, §3

D1-1 = settings: Homo sapiens; D1-1, Leukemia; 48 hours
Protocol: as §1, §2, §3

NCI-H460 = settings: Homo sapiens; NCI-H460, Non Small Cell Lung; 48 hours
Protocol: as §1, §2, §3

Ku-812 = settings: Homo sapiens, KU812; Ku-812, Leukemia; 48 hours
Protocol: as §1, §2, §3

UACC-257 = settings: Homo sapiens; UACC-257, Melanoma; 48 hours
Protocol: as §1, §2, §3

`CN1CCC[C@H]1CCNC(=O)c1cn2c3c(c(N4CCC(c5cnccn5)C4)c(F)cc3c1=O)Oc1cc3ccccc3cc1-2` (stereo partly shown) [TA1-1B] showed an EC50 (HT) of 2.44 µM, an EC50 (RS4-11) of 0.55 µM and an EC50 (HL-60(TB)) of 1.65 µM. The EC50 (OVCAR-5) was 2.17 µM, the EC50 (RPMI-6666) was 1.59 µM and the EC50 (MDA-MB-435) was 3.63 µM. It also gave an EC50 (GDM-1) of 1.26 µM, an EC50 (HH) of 4.04 µM and an EC50 (BT-549) of 1.8 µM. The EC50 (NCI-H522) was 1.5 µM, the EC50 (SNB-75) was 2.31 µM and the EC50 (IGROV1) was 4.44 µM. It also gave an EC50 (MALME-3M) of 5.09 µM, an EC50 (U937) of 4.54 µM and an EC50 (RS1184) of 3.25 µM. The EC50 (786-0) was 4.34 µM, the EC50 (RPMI-8226) was 1.37 µM and the EC50 (Ramos) was 1.33 µM. It also gave an EC50 (TF-1) of 5.46 µM, an EC50 (Reh) of 1.32 µM and an EC50 (Raji) of 1.88 µM. The EC50 (U251) was 2.68 µM, the EC50 (UACC-62) was 4.88 µM and the EC50 (I 9.2) was 3.69 µM. The EC50 (SF-268) was 1.23 µM, the EC50 (MEG-01) was 6 µM and the EC50 (MCF7) was 3.46 µM. It also gave an EC50 (D1-1) of 4.16 µM, an EC50 (NCI-H460) of 4.01 µM and an EC50 (Ku-812) of 4.19 µM. For the same compound, the EC50 (UACC-257) was 5.1 µM.
